# Assay results: patent US20100184113A1, “CONTROLLING OSTEOGENESIS BY INHIBITION OF OSTEOGENIC SUPPRESSORS” (The Scripps Research Institute Office of Patent Counsel, priority 2006, published 2010)
# Experiments:
# Assay type in all cases: cell-based, human
# [1] = test system: hMSCs; assay: Alkaline phosphatase (ALP) activity staining of hMSCs after siRNA transfection
# Procedure: The human mesenchymal stem cells (hMSCs, PT-2501) were purchased from Cambrex Inc. and cultured as instructed by the supplier. Cells were expanded to passage 5 before being used for siRNA library screen. Briefly, diluted Xtreme-siRNA transfection reagent (cat# 476 115 00, Roche) (0.12 μl Xtreme in 14 μl DMEM) was mixed with pre-spotted siRNA (14 ng/well) in each well of 384-well plates for one hour. Cells (4000/well) in 60 μl media (no antibiotics) were then added using automated dispenser (Multidrop 384, Thermo LabSystems) (siRNA final concentration at around 15 nM). Transfection was allowed to continue for 8 hours before first media renewal. After 7 days of culture, cells were stained for alkaline phosphatase (ALP) activity (cat# 86R-1 KT, Sigma). Post-screen assays were done in 96-well plates and siRNA was transfected at the concentration of 30 nM at the cell density of 8000 cells/well. CRE decoy oligonucleotide and control oligonucleotide (phosphorothioate bond modification on all nucleotides) (Park, Y. G. et al., J Biol Chem 274:1573-1580 (1999)) were transfected into cells similarly as siRNA using Xtreme-siRNA transfection reagent, except that the final DNA concentration was 90 nM. […]
# [2] = test system: hMSCs; assay: Alizarin red staining for calcium phosphate deposits (ECM mineralization, bone cell maturation); conditions: for intensity of alizarin red staining: OS treatment started three days after siRNA transfection and continued for 9 days (3+9OS), vs siCon
# [3] = test system: CREB; assay: Western blot of active (phosphorylated) CREB; conditions: 3 days after transfection, vs siCon treated or untreated
# Procedure: (§1) Cell lyses buffer contains 20 mM Tris pH8.0, 1 mM EDTA, 150 mM NaCl and 0.5% NP-40, and before usage, protease inhibitor cocktail (Cat# p8340, Sigma, 1:100 dilution) and phosphatase inhibitor cocktail 2 (Cat# p5726, sigma, 1:100 dilution) were added. Proteins (60 μg/well) were separated in 12% Novex Tris-Glycine gel (Cat# EC6008 box, Invitrogen) and transferred to Nitrocellulose membrane (Cat# LC2001, Invitrogen) using the XCell II blot module system (Cat# E19051, Invitrogen). The membrane was blocked in 5% milk/PBST for 1 hour at room temperature, incubated over night at 4 degree with primary antibody, washed 3 times with PBST (0.05% Tween 20 in PBS), followed by one hour incubation with secondary antibody in 5% milk/PBST and 3 times wash with PBST at room temperature. For antibody against pCREB however, PBST was substituted with PBS in all steps except for the last one. Antibody-bound proteins were detected utilizing ECL Western blotting detection reagent (Amersham Biosciences).
# (§2) Anti-phospho-CREB was purchased from Upstate Biotechnology (cat# 06-519); Anti-phospho-p38 was purchased from Cell signaling technology (cat# 9910).
# To find out whether CREB (cAMP Responding Element Binding protein), a common downstream effector of cAMP signaling pathway, is involved in mediating cAMP signaling controlled differentiation of hMSCs, we checked the expression level of the active form of CREB proteins in cells 3 days after siP2RY11, siADK, siGNAS, siSLC12a2 or siCon transfection. […] To further examine the role of CREB in osteogenesis and adipogenesis, a synthetic 24-mer CRE decoy oligonucleotide that can compete with endogenous CRE enhancers for binding proteins was transfected into hMSCs (Park, Y. G. et al., J Biol Chem 274:1573-1580 (1999)), which were then subjected to the treatment of osteogenic or adipogenic induction media.
# [4] = test system: hMSCs; assay: Adipogenic differentiation of hMSCs, Oil Red O staining; conditions: Adipo from third day after siRNA transfection, continued 12 days, Oil Red O
# Procedure: Cells were rinsed with PBS twice, fixed in 10% formalin solution for 20 minutes, rinsed with PBS twice and dH2O once, washed with propylene glycol for 5 minutes, and stained with Oil red in propylene glycol (12722A, Newcomer Supply) for 30 minutes. Cells were then washed with 85% propylene glycol for 5 minutes, rinsed with dH2O 3 times and preserved in 50% glycerol.
# 8-CPT-cAMP, Na (cat# 116812), 5-Iodotubercidin (cat# 407900), Prostaglandin E2 (PGE2, cat# 538904), SB 202190 (cat# 559388) and U0126 (cat# 662005) were purchased from Calbiochem; N6,2′-O-Dibutyryl-cAMP (cat# D0260-5MG), forskolin (cat# F6886), ascorbic acid 2-phosphate (cat# 49752-10G), (3-glycerophosphate (G-6251), dexamethasone (D8893), 3-isobutyl-1-methylxanthine (IBMX, 15879) and Insulin (19278) were purchased from Sigma/Aldrich/Fluka.
# Bone cell maturation is accompanied by extracellular matrix (ECM) mineralization (John Bilezikian et al., Principles of bone biology, Vol 1, 2nd edn: Academic Press) (2002)). To examine whether the osteogenic differentiation of hMSCs induced by the hit siRNAs can further proceed to the maturation stage, hit siRNA treated cells were cultured for 20 days. […] These observations are consistent with the conclusion that the targeted genes of the ten effective hit siRNAs not only play inhibitory roles in osteogenic specification of hMSCs, but also in bone cell maturation. […] Furthermore, in osteoporotic patients, the number of adipocytes was increased in the marrow, implying a change of cell fate disposition from osteoblast lineage to adipocyte lineage (Justesen, J. et al., Biogerontology 2:165-171 (2001); Meunier, P. et al., Clin Orthop Relat Res 80:147-154 (1971)). We therefore examined the effect of our hit siRNAs on adipogenic differentiation of hMSCs by combined treatment with an adipogenic inducing cocktail (100 μg/ml BMX, 1 μM DEX and 10 μg/ml insulin).
# Since the targeted genes are all positively involved in intracellular cAMP signaling, we tested the effect of two compounds of opposing function on cAMP production on osteogenic differentiation of hMSCs, ADK inhibitor 5-iodotubercidin and ADCY activator forskolin (Cottam, H. B. et al., J Med Chem 36:3424-3430 (1993); de Souza, N. J. et al., Med Res Rev 3:201-219 (1983)). […] ATP has been shown as a ligand for P2RY11 receptor (Communi et al., 1997). […] The present observations are consistent with the conclusion that […] in hMSCs, and vice versa.
# [5] = test system: p38; assay: Western blot of phosphorylated p38; conditions: 72 hours after transfection
# Procedure: as §1, §2
# We therefore examined the activation status of ERK1/2 and p38 in the siDUSP6 treated hMSCs along with other siRNA treated samples by western blot using antibodies against the phosphorylated form of the protein at 72 hours after transfection (FIG. 9c).
# [6] = test system: PLZF; assay: RT-PCR of PLZF; conditions: samples collected day 7 or day 12 after siRNA transfection
# Procedure: Total RNA from each sample was prepared from around 5×10(4) cells using RNAeasy mini kit from Qiagen and further treated with Turbo DNA-Free (cat# 1907, Ambion) to prevent DNA contamination. Reverse transcription was carried out using SuperScript First-Strand Synthesis System for RT-PCR (cat# 11904-018, Invitrogen) or Qiagen OneStep RT-PCR kit (cat# 210210) as instructed. PCR primers used were as follows: […]
# To test their roles in our siRNA induced osteogenic differentiation, RT-PCR was performed on these genes. […] In addition, MAPK signaling pathways have been shown activated in the OS treated hMSCs, and inhibition of these pathways suppresses OS induced osteogenesis (FIG. 9b) (Jaiswal, R. K. et al., J Biol Chem 275:9645-9652 (2000)).
Substance,intensity of alizarin red staining [2],level of pCREB protein [3],also measured
"CBFA1 siRNA: CBFA1-specific siRNA, antisense UAGUAGAGAUAUGGAGUGCtg, sense GCACUCCAUAUCUCUACUAtt (chain 1 UAGUAGAGAUAUGGAGUGCTG; chain 2 GCACUCCAUAUCUCUACUATT; chemistry not given here) [reference compound]",–,–,"ALP activity induced by hit siRNAs or OS on co-treatment ([1]; co-transfected with each hit siRNA, vs co-treatment with siCon): reduced the level of ALP activity"
"siADK: siRNA GCCACACAAAGCAGCAACA targeting adenosine kinase (listed as RNA, chemistry not given here)",dramatically enhanced,increased,"intensity of alizarin red staining, sequential treatment ([2]; siRNA (initial 2-4 days) followed by OS media, vs control treatment (FIG. 4)): clearly enhanced the intensity of alizarin red staining"
"siCOMP: siRNA CGGUCACGGAUGACGACUA targeting cartilage oligomeric matrix protein (listed as RNA, further chemistry not given here)",–,–,adipogenesis induced by adipogenic inducing media (Adipo) [4]: enhances adipogenesis; osteogenic differentiation (ALP activity) ([1]; 9 days after siRNA transfection): induces osteogenic differentiation of hMSCs
"siDUSP6: siRNA CUGUGGUGUCUUGGUACAU targeting dual specificity phosphatase 6 (listed as RNA, chemistry not given here)",modest enhancement,–,level of active (phosphorylated) p38 [5]: increased level of active p38
"siGNAS: siRNA UCGAAGAUUGAGGACUACU targeting GNAS complex locus (listed as RNA, chemistry not given here)",dramatically enhanced,increased,–
"siMJD: siRNA CAGAUGCAUCGACCAAAAC targeting Machado-Joseph disease (ataxin 3) (listed as RNA, chemistry not given here)",no significant effect,–,expression of PLZF [6]: detected
"siP2RY11: siRNA UGCGGGUGCUCAACGUGGA targeting purinergic receptor P2Y, G-protein coupled, 11 (listed as RNA, chemistry not given here)",dramatically enhanced,increased,–
"siSLC12a2: siRNA CCUCUUCGUGGCUACAUCU targeting solute carrier family 12, member 2 (listed as RNA, chemistry not given here)",dramatically enhanced,increased,–
